Several values for one entry are separate records, joined by “and”; a condition that tells them apart may be missing. Identical values can stand only once.
Key:
[1] = target: T1, C-1-tetrahydrofolate synthase, cytoplasmic (Homo sapiens) (UniProt P11586); experiment: Percent inhibition was measured against 5,10-Methylene Tetrahydrofolate Cyclohydrolase (porcine liver) enzyme at 10E-7 M inhibitory concentration; conditions: Sus scrofa; target entry is the homologue from another species
T1 sequence (whole entry): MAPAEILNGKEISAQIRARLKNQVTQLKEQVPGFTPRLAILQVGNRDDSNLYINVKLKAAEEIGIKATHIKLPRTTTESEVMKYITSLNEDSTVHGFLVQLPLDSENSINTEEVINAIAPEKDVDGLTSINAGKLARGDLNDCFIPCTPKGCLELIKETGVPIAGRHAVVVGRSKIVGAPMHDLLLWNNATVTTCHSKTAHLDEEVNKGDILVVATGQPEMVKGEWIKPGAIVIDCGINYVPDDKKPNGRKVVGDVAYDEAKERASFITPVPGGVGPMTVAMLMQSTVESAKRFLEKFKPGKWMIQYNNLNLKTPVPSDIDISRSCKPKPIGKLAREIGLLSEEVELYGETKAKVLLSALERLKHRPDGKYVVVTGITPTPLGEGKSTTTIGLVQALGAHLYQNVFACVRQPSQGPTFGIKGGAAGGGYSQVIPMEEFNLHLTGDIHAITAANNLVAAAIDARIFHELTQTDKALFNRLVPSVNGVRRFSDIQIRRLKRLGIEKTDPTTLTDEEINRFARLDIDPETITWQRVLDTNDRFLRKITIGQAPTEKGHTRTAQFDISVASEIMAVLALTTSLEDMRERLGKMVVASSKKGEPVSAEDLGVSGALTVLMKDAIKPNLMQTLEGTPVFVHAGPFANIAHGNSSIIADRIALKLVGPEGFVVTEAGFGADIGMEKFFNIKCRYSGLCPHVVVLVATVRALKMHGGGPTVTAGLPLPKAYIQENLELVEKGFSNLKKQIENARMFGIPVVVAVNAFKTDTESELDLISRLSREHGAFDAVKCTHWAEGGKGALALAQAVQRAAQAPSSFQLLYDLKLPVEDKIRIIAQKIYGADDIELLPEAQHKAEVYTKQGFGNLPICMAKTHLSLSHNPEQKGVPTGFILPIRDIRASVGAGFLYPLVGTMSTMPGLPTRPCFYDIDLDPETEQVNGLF

[2] = target: T1, C-1-tetrahydrofolate synthase, cytoplasmic (Homo sapiens); experiment: Percent inhibition was measured against 5,10-Methylene Tetrahydrofolate Cyclohydrolase (L1210 tumor tissue) enzyme at 10E-5 M inhibitory concentration
Sus scrofa [3] = species: Sus scrofa; experiment: Percent inhibition was measured against 5,10-Methylene Tetrahydrofolate Reductase (porcine kidney) enzyme at 10E-4 M inhibitory concentration
[4] = target: Dihydrofolate reductase (Bos taurus) (UniProt P00376); experiment: Percent inhibition was measured against Dihydrofolate reductase (bovine liver) enzyme at 10E-4 M inhibitory concentration
Sequence of Dihydrofolate reductase (Bos taurus) (P00376 whole entry, looked up): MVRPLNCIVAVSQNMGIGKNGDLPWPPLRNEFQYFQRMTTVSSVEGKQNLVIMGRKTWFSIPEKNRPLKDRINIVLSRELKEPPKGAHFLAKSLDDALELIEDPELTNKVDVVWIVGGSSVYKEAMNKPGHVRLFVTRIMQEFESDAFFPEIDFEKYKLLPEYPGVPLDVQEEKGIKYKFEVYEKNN

[5] = target: T1, C-1-tetrahydrofolate synthase, cytoplasmic (Homo sapiens); experiment: Percent inhibition was measured against 5,10-Methylene Tetrahydrofolate Cyclohydrolase (L1210 tumor tissue) enzyme at 10E-6 M inhibitory concentration; conditions: Sus scrofa
Sus scrofa [6] = species: Sus scrofa; experiment: Percent inhibition was measured against Serine transhydroxymethylase (porcine liver) enzyme at 10E-4 M inhibitory concentration
Sus scrofa [7] = species: Sus scrofa; experiment: Percent inhibition was measured against methionine synthetase (porcine kidney)enzyme at 10E-4 M inhibitory concentration
Columba livia [8] = experiment: Percent inhibition was measured against 5-amino-4-imidazolecarboxamide ribotide transformylase(pigeon liver) enzyme at 10E-5 M inhibitory concentration
Sus scrofa [9] = species: Sus scrofa; experiment: Percent inhibition was measured against formyl tetrahydrofolate synthase (porcine liver) enzyme at 10E-4 M inhibitory concentration
Thymidylate synthase = experiment: Percent inhibition was measured against Thymidylate synthase (calf thymus) enzyme at 10E-4 M inhibitory concentration
[10] = system: formyltetrahydrofolate synthetase (Mus musculus); experiment: Percent inhibition was measured against formyl tetrahydrofolate synthase (L1210 tumor tissue) enzyme at 10E-4 M inhibitory concentration
Columba livia [11] = experiment: Percent inhibition was measured against glycinamide ribotide transformylase (pigeon liver) enzyme at 10E-4 M inhibitory concentration
[12] = target: T1, C-1-tetrahydrofolate synthase, cytoplasmic (Homo sapiens); experiment: Percent inhibition was measured against 5,10-Methylene Tetrahydrofolate Cyclohydrolase (porcine liver) enzyme at 10E-6 M inhibitory concentration; conditions: Sus scrofa; target entry is the homologue from another species
Sus scrofa [13] = species: Sus scrofa; experiment: Percent inhibition was measured against Serine transhydroxymethylase (porcine liver) enzyme. at 10E-4 M inhibitory concentration
Sus scrofa [14] = species: Sus scrofa; experiment: Percent inhibition was measured against methionine synthetase (porcine kidney)enzyme.; conditions: concentration not given here
[15] = target: T1, C-1-tetrahydrofolate synthase, cytoplasmic (Homo sapiens); experiment: Percent inhibition was measured against 5,10-Methylene Tetrahydrofolate Cyclohydrolase (A,porcine liver) enzyme.; conditions: Sus scrofa; target entry is the homologue from another species; concentration not given here
[16] = target: Thymidylate synthase (Homo sapiens) (UniProt P04818); experiment: Percent inhibition was measured against Thymidylate synthase (calf thymus) enzyme; conditions: concentration not given here
Sequence of Thymidylate synthase (Homo sapiens) (P04818 2-313 limits assumed): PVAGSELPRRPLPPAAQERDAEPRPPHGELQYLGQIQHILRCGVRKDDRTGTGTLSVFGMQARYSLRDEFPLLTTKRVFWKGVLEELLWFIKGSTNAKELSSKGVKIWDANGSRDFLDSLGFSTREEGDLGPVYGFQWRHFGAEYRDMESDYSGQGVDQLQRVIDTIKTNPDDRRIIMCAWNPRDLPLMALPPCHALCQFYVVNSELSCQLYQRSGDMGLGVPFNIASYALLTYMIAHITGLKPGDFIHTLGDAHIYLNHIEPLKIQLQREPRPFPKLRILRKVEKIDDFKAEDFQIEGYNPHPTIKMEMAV

Sus scrofa [17] = species: Sus scrofa; experiment: Percent inhibition was measured against 5,10-Methylene Tetrahydrofolate Reductase (porcine kidney) enzyme.; conditions: concentration not given here
Columba livia [18] = experiment: Percent inhibition was measured against glycinamide ribotide transformylase (pigeon liver) enzyme.; conditions: concentration not given here
[19] = target: T1, C-1-tetrahydrofolate synthase, cytoplasmic (Homo sapiens); experiment: Percent inhibition was measured against 5,10-Methylene Tetrahydrofolate Cyclohydrolase (porcine liver) enzyme.; conditions: Sus scrofa; target entry is the homologue from another species; concentration not given here
Sus scrofa [20] = species: Sus scrofa; experiment: Percent inhibition was measured against formyl tetrahydrofolate synthase (porcine liver) enzyme.; conditions: concentration not given here
Columba livia [21] = experiment: Percent inhibition was measured against 5-amino-4-imidazolecarboxamide ribotide transformylase(pigeon liver) enzyme.; conditions: concentration not given here
[22] = target: T1, C-1-tetrahydrofolate synthase, cytoplasmic (Homo sapiens); experiment: Percent inhibition was measured against 5,10-Methylene Tetrahydrofolate Cyclohydrolase (porcine liver) enzyme at 10E-5 M inhibitory concentration; conditions: Sus scrofa; target entry is the homologue from another species
Sus scrofa [23] = species: Sus scrofa; experiment: (§1) Percent inhibition was measured against 5,10-Methylene Tetrahydrofolate Cyclohydrolase (porcine liver) enzyme at 10E-4 M inhibitory concentration
[24] = target: T1, C-1-tetrahydrofolate synthase, cytoplasmic (Homo sapiens); experiment: Percent inhibition was measured against 5,10-Methylene Tetrahydrofolate Cyclohydrolase (L1210 tumor tissue) enzyme at 10E-4 M inhibitory concentration
[25] = target: T1, C-1-tetrahydrofolate synthase, cytoplasmic (Homo sapiens); experiment: as §1; conditions: Sus scrofa; target entry is the homologue from another species
[26] = Percent inhibition was measured against 5,10-Methylene Tetrahydrofolate Cyclohydrolase (L1210 tumor tissue) enzyme at 10E-6 M inhibitory concentration
Columba livia [27] = experiment: Percent inhibition was measured against 5-amino-4-imidazolecarboxamide ribotide transformylase(pigeon liver) enzyme at 10E-4 M inhibitory concentration
[28] = target: T1, C-1-tetrahydrofolate synthase, cytoplasmic (Homo sapiens); experiment: as §1; conditions: Sus scrofa; target entry is the homologue from another species; remark: listed apart in the source

Row | inhibition (Sus scrofa [3]) [%] | inhibition [4] [%] | inhibition [5] [%] | inhibition (Sus scrofa [7]) [%] | inhibition (Columba livia [8]) [%] | inhibition (Sus scrofa [9]) [%] | inhibition (Thymidylate synthase) [%] | inhibition [10] [%] | inhibition (Columba livia [11]) [%] | inhibition [12] [%] | inhibition (Sus scrofa [13]) [%] | inhibition [24] [%] | inhibition (Columba livia [27]) [%] | inhibition [28] | also measured | Compound
1 | 41 | 16 | 48 | 2 | 0 | 15 | 25 | 16 | 0 | 24 | – | – | – | – | inhibition [1]: 48%; inhibition [2]: 51%; inhibition (Sus scrofa [6]): 40% | Nc1nc2c(c(=O)[nH]1)N1C(=O)N(c3ccc(C(=O)NC(CCC(=O)O)C(=O)O)cc3)CC1CN2 (stereo not drawn)
2 | – | 15 | – | – | – | – | – | – | – | – | 10 | – | – | – | inhibition (Sus scrofa [14]): 22%; inhibition [15]: 9%; inhibition [16]: 0%; inhibition (Sus scrofa [17]): 40%; inhibition (Columba livia [18]): 0%; inhibition [19]: 0%; inhibition (Sus scrofa [20]): 0%; inhibition (Columba livia [21]): 19% | Nc1nc2c(c(=O)[nH]1)N1C=[N+](c3ccc(C(=O)NC(CCC(=O)O)C(=O)O)cc3)CC1CN2 (stereo not drawn)
3 | 55 | 30 | 50 | 5 | 37 | – | 8 | 13 | 11 | 24 | 0 | 12 | – | – | inhibition [22]: 27%; inhibition (Sus scrofa [23]): 24% | Nc1nc2c(c(=O)[nH]1)N1C(=S)N(c3ccc(C(=O)NC(CCC(=O)O)C(=O)O)cc3)CC1CN2 (stereo not drawn)
4 | 0 | 0 | – | 4 | – | 21 | 0 | 12 | 0 | – | 30 | 24 | 13 | 24% | inhibition [25]: 61%; inhibition [26]: 43% | N=C1N(c2ccc(C(=O)NC(CCC(=O)O)C(=O)O)cc2)CC2CNc3nc(N)[nH]c(=O)c3N12 (stereo not drawn)
5 | 20 | 13 | – | 10 | – | 0 | 16 | – | 0 | – | 10 | – | 33 | 3% and 0% | – | Nc1nc2c(c(=O)[nH]1)N1CCN(c3ccc(C(=O)NC(CCC(=O)O)C(=O)O)cc3)CC1CN2 (stereo not drawn)
